According to US12208107B2, “Method and compositions for the treatment of anemia through the inhibition of furin” (Brigham Young University, priority 2016, dated 2025):
“Also recorded” adds a separate entry of the source. One block for each compound: values may come before it. Residues, ends and D or L forms follow the SMILES beside them.

Assays:
[1] = test system: pSTAT3 in Huh7 cells; test: STAT3 phosphorylation Western blot after IL-6 induction, Huh7; assay type: cell-based, human; details: for inhibition of STAT3 phosphorylation (in words): 0-60 μM, IL-6 50 ng/mL
Description: For the STAT3 and Smad4 experiments, the cells were seeded at a density of 1.5×10^5 per flask in 5 mL of culture medium and allowed to reach 70% confluency. At time 0, the cells received fresh media and were treated with nelfinavir, ritonavir, darunavir or indinavir, at concentrations ranging from 0 to 60 μM for three hours, and then induced with IL-6 or BMP-9 (Cat, #200-06 and 120-07, PeproTech, Rocky Hill, NJ) 50 ng/mL, for 30 minutes.
(§1) After treatments, cultured cells were washed with ice-cold PBS and lysed by adding ice-cold RIP A buffer containing 50 mM Tris-HCl (pH 8), 150 mM NaCl, 1% Triton X-100, 0.5% sodium deoxycholate, 0.1% SDS, 5 mM EDTA and IX protease/phosphatase cocktail inhibitor (Thermo Fisher Scientific, Waltham, MA), Cells were scraped off the flask and were further disrupted by passing the solution through a 21 gauge needle. The extracts were then transferred to a microfuge tube and centrifuged for 20 min at 12000 rpm. Protein concentration was determined with a Lowry assay and equal amounts of the resulting protein (30 μg) were separated by 8% SDS-PAGE and then transferred to a nitrocellulose membrane (Bio-Rad).
After transfer, the membranes were blocked in Odyssey™ Blocking Buffer (927-40100, LI-COR Biosciences, Lincoln, NE) at room temperature, for 1 hour. Primary antibodies were diluted in blocking solution containing 0.2% Tween and incubated overnight at 4° C. with polyclonal antibody to ferroportin (rabbit, 1:1000 dilution; PAS-2293, Thermo Scientific, Waltham, MA), phospho-STAT3 Tyr705 and STAT3 (1:1000 dilution, (Cat. #9145 and 9139 respectively, Cell Signaling Technology, Beverly, MA). Blots were normalized by probing the membranes with either a p-actin or glucose-6-phosphate dehydrogenase polyclonal antibody (Cat. #3700 and 8866 respectively, Cell Signaling Technology, Beverly, MA). After incubation and washing with PBS-T, the membranes where incubated in the dark, in blocking solution with 0.2% Tween with IRDye 800CW Goat anti-Rabbit IgG and IRDye® 680RD Donkey anti-Mouse IgG (1:10000, LI-COR Biosciences, Lincoln, NE) for 1 hour at room temperature. The proteins were detected and visualized by fluorescence using the Odyssey Classic (LI-COR Biosciences, Lincoln, NE). Densitometry analysis of specific bands was performed with the Image Studio software.
To assess whether PIs abrogate the IL-6 signaling cascade, STATS phosphorylation (pSTAT3) was measured in the hepatocyte cell lines. PIs were incubated with both Huh7 and HepG2 cell lines for 3 hours, before the addition of IL-6 (50 ng/mL) for 30 minutes. Concentrations of PIs ranged from 0-60 μM. Following 30 minutes of IL-6 induction, cells wore immediately lysed, and proteins harvested for Western blot analysis. Untreated hepatocyte control cells are designated as healthy.

[2] = test system: hepcidin-25 in Huh7 cell media; test: Hepcidin-25 quantification in Huh7 cell media by mass spectrometry; assay type: cell-based, human; details: 18 hrs; for production of mature secreted hepcidin: single PI at 15 μM, IL-6 and BMP-9 10 ng/mL each
[3] = molecular target: T1, Recombinant human furin (Homo sapiens, UniProt P09958); test: In vitro fluorogenic furin activity assay; assay type: biochemical; details: for inhibition of furin activity in the drug screen: fluorogenic substrate BOC-Arg-Val-Arg-Arg-AMC, FIG. 9 / FIG. 22; for fluorescence (furin activity): single drug at 110 and 220 μM, 50-minute time course
T1 construct: purchased New England BioLabs (Ipswich, MA)
Description: Recombinant human furin was purchased from New England BioLabs (Ipswich, MA). Fluorogenic furin convertase substrate BOC-Arg-Val-Arg-Arg-AMC (AMC=7-Amino-4-methylcoumarin) from Enzo Life Sciences (Farmingdale, NY) and HIV aspartyl protease inhibitors (Sigma) were dissolved in DMSO. Protease inhibitory′ drugs were prepared at a. concentration of 10 mg/mL and stored at room temperature. Furin Inhibitor II chloromethylketone was purchased from EMD Millipore (Darmstadt, Germany).
The assay was performed at pH 7.5 in buffer 50 mM HEPES, 1 mM CaCl2, 1 mM β-mercaptoethanol, 0.2 mg/mL BSA. In a total volume of 100 μL, the final concentration per well of substrate enzyme was 10 μM and 1 U/well respectively. All assays were performed at 37° C. in a 96-well fluorometer (BioTek Synergy H4 Hybrid reader) with an excitation wavelength of 345 nm and an emission wavelength of 420 nm.
Inhibitory small molecules were incubated with enzyme for 1 hour at 37° C. prior to addition of substrate to initiate the reaction. All assays were performed in triplicate. Inhibition constants were calculated based on methods previously described (Lineweaver, H. & Burk, D. The Determination of Enzyme Dissociation Constants. J. Am. Chem. Soc. 56, 658-666 (1934)). […]
The molecular docking studies predicted that PIs bind to the catalytic site of furin as well as to a putative allosteric site on furin (FIGS. 7A and 7B). A fluorescence assay was used to monitor furin activity. Furin has substrate specificity for the multi-basic consensus amino-acid sequence of Arg-X-Lys/Arg-Arg (RXRR) at the cleavage site, where X represents a neutral, polar amino acid. Peptide substrates including the furin cleavage sequence having an attached fluorescent tag were used. A fluorescence tag is quenched when it is attached to the peptide, but when furin cleaves the peptide the fluorophore is released and is able to fluoresce. The inhibitory effect of the PIs in this assay can be characterized through a positive control, in which furin actively cleaves substrate without the presence of an inhibitor.

[4] = test system: HAMP gene expression in Huh7 hepatocytes; test: HAMP gene expression (RT-qPCR), Huh7; assay type: cell-based, human; details: IL-6/BMP-9 induced Huh7, 18 hrs; ND 15 μM, CMK 25 μM
Description: Cells were seeded at a density of 1.5×10^6 per T25 flask in 5 mL culture medium and allowed to reach 50% confluency. At time 0, the cells received fresh media and were then simultaneously treated with either nelfinavir or darunavir alone, or nelfinavir and darunavir at varying concentrations (2.5/2.5 μM, 5/5 μM and 7.5/7.5 μM) and induced with IL-6 and BMP-9 (10 ng/mL each) for 18 hours. […] Control groups not being induced with cytokines, are designated as ‘Healthy’.
RNA was isolated by washing tissue culture in 1×PBS, before applying QIAzol lysis reagent (Cat #79306). RNA was then purified on RNeasy mini kit columns (Cat #74104) from Qiagen. All samples were treated with Qiagen DNase (Cat #79254). Two micrograms of RNA were used for reverse transcription and subsequent SYBR® Green ROX real time PCR for the genes of interest. Reverse transcription kits (Cat #330401) and SYBR Green real-time PCR master mixes (Cat #330523) were from Qiagen (Louisville, KY). […]
Real time quantitative PCR was performed on an Applied Biosciences StepOne plus instrument and analyzed with StepOne software v2.3. The relative amounts of transcripts from each gene were normalized to reference gene GAPDH and calculated as follows: ΔΔCT=the average ΔCT of sample B−the average ΔCT of sample B, and their fold difference=2−^ΔΔCT.

[5] = test system: ferroportin in HepG2 cells; test: Ferroportin Western blot, HepG2; assay type: cell-based, human; details: HepG2, IL-6/BMP-9 10 ng/mL each; ND 15 μM, CMK 25 μM
Description: (§2) Cells were seeded at a density of 1.5×10^6 per T25 flask in 5 mL culture medium and allowed to reach 50% confluency. At time 0, the cells received fresh media and were then simultaneously treated with either nelfinavir or darunavir alone, or nelfinavir and darunavir at varying concentrations (2.5/2.5 μM, 5/5 μM and 7.5/7.5 μM) and induced with IL-6 and BMP-9 (10 ng/mL each) for 18 hours. After 18 hours, 2 mL of media were collected, aliquoted and flash frozen for mass spectrometry (MS) analysis. Control groups not being induced with cytokines, are designated as ‘Healthy’.
as §1, with “(Bio-Rad). […]” for “(Bio-Rad).”

[6] = test system: prohepcidin in Huh7 cell media; test: Prohepcidin secretion into Huh7 cell media; assay type: cell-based, human
Description: as §2

[7] = test system: Female Lewis rats (PG-LPS model of ACI); test: PG-LPS rat model of anemia of chronic inflammation; assay type: in vivo; details: for serum hepcidin, lower than in PG-LPS rats / serum prohepcidin, higher than in PG-LPS rats: ELISA; for Hb (g/dL) Day 0 / Hb (g/dL) Day 62: nelfinavir with ritonavir by oral gavage
[8] = PG-LPS rats, listed as nelfinavir
[9] = Treated Control (no PG-LPS), n = 4

T1 sequence (P09958 108-794): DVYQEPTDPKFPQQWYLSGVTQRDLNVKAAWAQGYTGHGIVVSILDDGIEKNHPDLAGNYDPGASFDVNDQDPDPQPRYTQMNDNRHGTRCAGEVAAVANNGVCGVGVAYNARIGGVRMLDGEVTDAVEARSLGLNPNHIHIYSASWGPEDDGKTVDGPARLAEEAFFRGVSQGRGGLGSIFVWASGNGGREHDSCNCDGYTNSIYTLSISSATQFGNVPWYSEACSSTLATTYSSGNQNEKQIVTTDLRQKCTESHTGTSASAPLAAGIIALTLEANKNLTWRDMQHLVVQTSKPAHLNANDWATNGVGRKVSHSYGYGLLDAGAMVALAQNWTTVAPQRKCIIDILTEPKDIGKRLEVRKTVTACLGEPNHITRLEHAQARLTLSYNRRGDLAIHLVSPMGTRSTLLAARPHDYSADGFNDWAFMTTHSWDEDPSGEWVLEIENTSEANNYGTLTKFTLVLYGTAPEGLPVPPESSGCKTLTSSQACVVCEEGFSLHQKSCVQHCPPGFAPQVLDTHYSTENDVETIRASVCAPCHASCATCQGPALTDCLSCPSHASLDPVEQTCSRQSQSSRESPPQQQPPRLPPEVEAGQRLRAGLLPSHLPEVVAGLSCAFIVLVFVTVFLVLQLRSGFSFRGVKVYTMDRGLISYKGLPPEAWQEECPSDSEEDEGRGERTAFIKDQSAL

Compound: CC(C)CN(C[C@@H](O)[C@H](Cc1ccccc1)NC(=O)O[C@H]1CO[C@H]2OCC[C@H]21)S(=O)(=O)c1ccc(N)cc1 [Darunavir, [(1R, 5S, 6R)-2,8-dioxabicyclo[3.3.0]oct-6-yl] N-[(2S, 3R)-4-[(4-aminophenyl)sulfonyl-(2-methylpropyl)amino]-3-hydroxy-1-phenyl-butan-2-yl] carbamate]
- inhibition of STAT3 phosphorylation (in words) [1]: no signs of pSTAT3 inhibition; also recorded: did not show any statistically significant inhibition; also recorded: Neither darunavir nor indinavir inhibits STAT3 phosphorylation
- production of mature secreted hepcidin [2]: back to basal levels
- type of inhibition (Lineweaver-Burk) [3]: uncompetitive inhibition
- inhibition of furin activity in the drug screen [3]: three best inhibitors
- fluorescence (furin activity) [3]: decreased fluorescence

Compound: CCCCCCCCCC(=O)N[C@@H](CCCN=C(N)N)C(=O)N[C@H](C(=O)N[C@@H](CCCCN)C(=O)N[C@@H](CCCN=C(N)N)C(=O)CCl)C(C)C [Dec-RVKR-CMK] (HELM PEPTIDE1{[CCCCCCCCCC(=O)[*:2]].R.V.K.R.[ClC[*:1]]}$$$$V2.0)
- HAMP gene expression [4]: this phenomenon was not observed
- hepcidin-25 in media of cytokine-induced cells ([2]; IL-6/BMP-9 10 ng/mL each, ND 15 μM (7.5 μM each), CMK 25 μM): statistically significant drop in mature hepcidin-25 is not observed
- inhibition of furin activity in the drug screen [3]: full inhibition of furin
- increase of ferroportin expression compared to IL-6/BMP-9 control [5]: 109%
- prohepcidin in media of cytokine-induced cells (in words) ([6]; IL-6/BMP-9 10 ng/mL each, 18 hr, ND 7.5 μM each, CMK 25 μM): significantly raised
- secreted prohepcidin concentration, healthy cell groups ([6]; no cytokine induction): No significant difference

Compound: CC(C)(C)NC(=O)[C@@H]1CN(Cc2cccnc2)CCN1C[C@@H](O)C[C@@H](Cc1ccccc1)C(=O)N[C@H]1c2ccccc2C[C@H]1O [Indinavir]
- inhibition of STAT3 phosphorylation (in words) [1]: no signs of pSTAT3 inhibition; also recorded: did not show any statistically significant inhibition; also recorded: Neither darunavir nor indinavir inhibits STAT3 phosphorylation

- type of inhibition (Lineweaver-Burk) [3]: competitive inhibition
- inhibition of furin activity in the drug screen [3]: three best inhibitors
- fluorescence (furin activity) [3]: decreased fluorescence
Compound: Cc1c(O)cccc1C(=O)N[C@@H](CSc1ccccc1)[C@H](O)CN1C[C@H]2CCCC[C@H]2C[C@H]1C(=O)NC(C)(C)C [Nelfinavir]
- iron in bone marrow, PG-LPS rats ([7]; ICP-MS): increased significantly
- iron in serum, PG-LPS rats ([7]; ICP-MS): increased significantly
- liver iron content, PG-LPS rats ([7]; PG-LPS PI treated group): dropped
- more serum iron than PG-LPS treated rats ([7]; PG-LPS rats): ~25%
- recovery of hemoglobin and hematocrit ([7]; PG-LPS rats): did not demonstrate a recovery
- serum hepcidin, lower than in PG-LPS rats ([7]; PG-LPS rats): ~2 fold
- serum prohepcidin, higher than in PG-LPS rats ([7]; PG-LPS rats): ~2.5 fold
- serum hepcidin, lower than in PG-LPS rats [7, 8]: approximately 2 fold
- serum prohepcidin, higher than in PG-LPS rats [7, 8]: approximately 2.5 fold
- recovery of hemoglobin and hematocrit [7, 8]: did not significantly recover
- increase of prohepcidin ([7]; PG-LPS rats, ritonavir co-administered): 148%
- inhibition of mature hepcidin production ([7]; PG-LPS rats, therapeutic serum concentration 4 ng/mL, ritonavir co-administered): 47%
- transcription of HAMP mRNA in liver ([7]; PG-LPS treated animals, qPCR): did not show any statistically significant changes
- Hb (g/dL) Day 0 [7, 9]: 14.4 ± 0.4 g/dL
- Hb (g/dL) Day 62 [7, 9]: 15.2 ± 0.2 g/dL
- HCT (%) Day 0 ([7]; Treated Control, n = 4): 41.5 ± 0.9%
- HCT (%) Day 62 ([7]; Treated Control, n = 4): 44.6 ± 2.7%
- MCV (fl) Day 0 ([7]; Treated Control, n = 4): 55.3 ± 0.7 fL
- MCV (fl) Day 62 ([7]; Treated Control, n = 4): 49.7 ± 0.5 fL
- RDW (%) Day 0 ([7]; Treated Control, n = 4): 12.6 ± 0.1%
- RDW (%) Day 62 ([7]; Treated Control, n = 4): 37.2 ± 0.7%
- HCT (%) Day 0 ([7]; Treated PG-LPS, n = 7): 41.5 ± 2.4%
- HCT (%) Day 62 ([7]; Treated PG-LPS, n = 7): 37.6 ± 3.9%
- MCV (fl) Day 0 ([7]; Treated PG-LPS, n = 7): 55.8 ± 1.5 fL
- MCV (fl) Day 62 ([7]; Treated PG-LPS, n = 7): 46.7 ± 0.6 fL
- RDW (%) Day 0 ([7]; Treated PG-LPS, n = 7): 13.6 ± 2.5%
- RDW (%) Day 62 ([7]; Treated PG-LPS, n = 7): 42.8 ± 1.2%
- Hb (g/dL) Day 0 ([7]; Treated PG-LPS, n = 7): 14.1 ± 1.1 g/dL
- Hb (g/dL) Day 62 ([7]; Treated PG-LPS, n = 7): 13.0 ± 1.1 g/dL
- liver ferroportin, PG-LPS rats (in words) ([7]; Western blot): significantly higher
- increase in liver ferroportin, healthy rats ([7]; healthy treated rats): ~3 fold
- hepcidin levels, healthy rats ([7]; healthy treated vs healthy): slightly higher
- liver iron content, healthy rats ([7]; healthy treated vs healthy): dropped significantly
- prohepcidin levels, healthy rats ([7]; healthy treated vs healthy): much higher
- serum iron, healthy rats ([7]; healthy treated vs healthy): not significantly different
- increase of ferroportin expression in animal liver ([7]; ritonavir co-administered): 2.5 fold
- HAMP gene expression [4]: significant inhibitory effect
- inhibition of STAT3 phosphorylation (in words) [1]: inhibiting STAT3 phosphorylation in a dose dependent manner; also recorded: concentration dependent manner; also recorded: dose dependent inhibition
- inhibition at 5 µM ([1]; Homo sapiens, Huh-7, 5 μM, 3 hrs before IL-6 50 ng/mL 30 min): 27%
- inhibition at 15 µM ([1]; Homo sapiens, Huh-7, 15 μM, 3 hrs before IL-6 50 ng/mL 30 min): 46%
- production of mature secreted hepcidin [2]: back to basal levels

Compound: CC(C)c1nc(CN(C)C(=O)N[C@H](C(=O)N[C@@H](Cc2ccccc2)C[C@H](O)[C@H](Cc2ccccc2)NC(=O)OCc2cncs2)C(C)C)cs1 [Ritonavir]
- inhibition of STAT3 phosphorylation (in words) [1]: not concentration dependent
- inhibition of STAT3 phosphorylation (in words) ([1]; listed as ritonavir): dose dependent inhibition
- inhibition of STAT3 phosphorylation ([1]; all concentrations tested): ~25%
- average pSTAT3 inhibition ([1]; doses 5-30 μM): 27%
